The test relates to CD2F1 mice, L1210 leukemia ip, survival T/C. Nature of the test: NCI In Vivo Anticancer Drug Screen. Data for tumor model L1210 Leukemia (intraperitoneal) in CD2F1 (CDF1) mice. Conditions: higher = longer survival. The essentials: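 Ratio T/C, where T is the treated-group value and C the vehicle-dosed control value, from mice implanted with a transplantable tumor.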
Setting [1] is: endpoint: mean survival time, dose: 12.5 mg/kg/injection, schedule: Q01DX009 (ip), vehicle: saline with Tween-80.
The mark [2] stands for this setting: endpoint: mean survival time, dose: 100.0 mg/kg/injection, schedule: Q01DX009 (ip), vehicle: saline with Tween-80.
Where [3] appears, read: endpoint: mean survival time, dose: 200.0 mg/kg/injection, schedule: Q01DX009 (ip), vehicle: saline with Tween-80.
[4] abbreviates: endpoint: mean survival time, dose: 25.0 mg/kg/injection, schedule: Q04DX002 (ip), vehicle: saline with Tween-80.
Setting [5] is: endpoint: mean survival time, dose: 50.0 mg/kg/injection, schedule: Q04DX002 (ip), vehicle: saline with Tween-80.
[6] abbreviates: endpoint: mean survival time, dose: 50.0 mg/kg/injection, schedule: Q01DX009 (ip), vehicle: saline with Tween-80.
The mark [7] stands for this setting: endpoint: mean survival time, dose: 100.0 mg/kg/injection, schedule: Q01DX001 (ip), vehicle: saline with Tween-80.
[8] abbreviates: endpoint: mean survival time, dose: 200.0 mg/kg/injection, schedule: Q01DX001 (ip), vehicle: saline with Tween-80.
Setting [9] is: endpoint: mean survival time, dose: 400.0 mg/kg/injection, schedule: Q01DX001 (ip), vehicle: saline with Tween-80.

“And” between values parts separate entries of the source, which are not always exact repeats. Equal entries are not always repeated. Toxic doses and inconclusive results are not listed.

For the compound `O=C(NO)c1ccc(O)c(O)c1`, the T/C runs as follows: (endpoint: mean survival time, dose: 25.0 mg/kg/injection, schedule: Q01DX009 (ip), vehicle: water) 115 % of control; (endpoint: mean survival time, dose: 164.71 mg/kg/injection, schedule: Q01DX009 (ip), vehicle: water) 121 % of control; (endpoint: mean survival time, dose: 196.0 mg/kg/injection, schedule: Q01DX009 (ip), vehicle: water) 152 % of control; (endpoint: mean survival time, dose: 200.0 mg/kg/injection, schedule: Q01DX009 (ip), vehicle: water) 167 % of control; (endpoint: mean survival time, dose: 245.0 mg/kg/injection, schedule: Q01DX009 (ip), vehicle: water) 168 % of control; (endpoint: mean survival time, dose: 307.0 mg/kg/injection, schedule: Q01DX009 (ip), vehicle: water) 167 % of control. In addition, the T/C runs as follows: (endpoint: mean survival time, dose: 307.2 mg/kg/injection, schedule: Q01DX009 (ip), vehicle: water) 176 % of control; (endpoint: mean survival time, dose: 336.14 mg/kg/injection, schedule: Q01DX009 (ip), vehicle: water) 155 % of control; (endpoint: mean survival time, dose: 383.0 mg/kg/injection, schedule: Q01DX009 (ip), vehicle: water) 185 % of control; (endpoint: mean survival time, dose: 384.0 mg/kg/injection, schedule: Q01DX009 (ip), vehicle: water) 162 % of control; (endpoint: mean survival time, dose: 400.0 mg/kg/injection, schedule: Q01DX009 (ip), vehicle: water) 167 % of control; (endpoint: mean survival time, dose: 480.0 mg/kg/injection, schedule: Q01DX009 (ip), vehicle: water) 167 % of control and 206 % of control. Also, the T/C was 187 % of control (endpoint: mean survival time, dose: 480.2 mg/kg/injection, schedule: Q01DX009 (ip), vehicle: water); 154 % of control and 164 % of control (endpoint: mean survival time, dose: 600.0 mg/kg/injection, schedule: Q01DX009 (ip), vehicle: water); 113 % of control (endpoint: median survival time, dose: 18.75 mg/kg/injection, schedule: Q03HX024 (ip), vehicle: water); 109 % of control (endpoint: median survival time, dose: 22.5 mg/kg/injection, schedule: Q03HX024 (ip), vehicle: water); 124 % of control (endpoint: median survival time, dose: 37.5 mg/kg/injection, schedule: Q03HX024 (ip), vehicle: water); 119 % of control (endpoint: median survival time, dose: 45.0 mg/kg/injection, schedule: Q03HX024 (ip), vehicle: water). The T/C runs as follows: (endpoint: median survival time, dose: 50.0 mg/kg/injection, schedule: Q01DX009 (ip), vehicle: water) 117 % of control; (endpoint: median survival time, dose: 100.0 mg/kg/injection, schedule: Q01DX009 (ip), vehicle: water) 124 % of control; (endpoint: median survival time, dose: 120.0 mg/kg/injection, schedule: Q01DX009 (ip), vehicle: water) 122 % of control; (endpoint: median survival time, dose: 180.0 mg/kg/injection, schedule: Q03HX024 (ip), vehicle: water) 214 % of control; (endpoint: median survival time, dose: 225.0 mg/kg/injection, schedule: Q03HX024 (ip), vehicle: water) 273 % of control; (endpoint: median survival time, dose: 240.0 mg/kg/injection, schedule: Q01DX009 (ip), vehicle: water) 154 % of control. The T/C by setting is: (endpoint: median survival time, dose: 268.0 mg/kg/injection, schedule: Q01DX009 (ip), vehicle: water) 160 % of control; (endpoint: median survival time, dose: 270.0 mg/kg/injection, schedule: Q03HX024 (ip), vehicle: water) 238 % of control; (endpoint: median survival time, dose: 400.0 mg/kg/injection, schedule: Q01DX009 (ip), vehicle: water) 162 % of control and 163 % of control; (endpoint: median survival time, dose: 480.0 mg/kg/injection, schedule: Q01DX009 (ip), vehicle: water) 178 % of control; (endpoint: median survival time, dose: 600.0 mg/kg/injection, schedule: Q01DX009 (ip), vehicle: water) 95 % of control; (endpoint: median survival time, dose: 720.0 mg/kg/injection, schedule: Q01DX009 (ip), vehicle: water) 170 % of control.

For `OC(c1ccccc1Cl)C(Cl)(Cl)Cl` (stereo not given), the T/C was 96 % of control (endpoint: mean survival time, dose: 50.0 mg/kg/injection, schedule: Q01DX009 (ip), vehicle: Klucel (hydroxypropylcellulose) (HPC)); 93 % of control (endpoint: mean survival time, dose: 100.0 mg/kg/injection, schedule: Q01DX009 (ip), vehicle: Klucel (hydroxypropylcellulose) (HPC)); 104 % of control (endpoint: mean survival time, dose: 200.0 mg/kg/injection, schedule: Q01DX009 (ip), vehicle: Klucel (hydroxypropylcellulose) (HPC)).

In the case of `O=S(=O)(c1ccc(Cl)cc1)c1ccc(Cl)cc1`, the T/C (endpoint: mean survival time, dose: 100.0 mg/kg/injection, schedule: Q01DX001 (ip), vehicle: Klucel (hydroxypropylcellulose) (HPC)) is 93 % of control; the T/C (endpoint: mean survival time, dose: 200.0 mg/kg/injection, schedule: Q01DX001 (ip), vehicle: Klucel (hydroxypropylcellulose) (HPC)) was 90 % of control; the T/C (endpoint: mean survival time, dose: 400.0 mg/kg/injection, schedule: Q01DX001 (ip), vehicle: Klucel (hydroxypropylcellulose) (HPC)) is 96 % of control.

As to `CC1=NN(c2ccccc2)C(=O)/C1=C/N(C)C`, the T/C reads like this: (endpoint: mean survival time, dose: 3.13 mg/kg/injection, schedule: Q01DX009 (ip), vehicle: saline with Tween-80) 103 % of control; (endpoint: mean survival time, dose: 6.25 mg/kg/injection, schedule: Q01DX009 (ip), vehicle: saline with Tween-80) 97 % of control; (endpoint: mean survival time, dose: 6.25 mg/kg/injection, schedule: Q04DX003 (ip), vehicle: saline with Tween-80) 95 % of control; under setting [1], 100 % of control; (endpoint: mean survival time, dose: 12.5 mg/kg/injection, schedule: Q04DX003 (ip), vehicle: saline with Tween-80) 90 % of control.

Regarding `O=C(Nc1ccc(-c2cc(-c3ccccc3)on2)cc1)c1ccccc1`, the T/C was 90 % of control (endpoint: mean survival time, dose: 100.0 mg/kg/injection, schedule: Q04DX003 (ip), vehicle: saline with Tween-80); 88 % of control (endpoint: mean survival time, dose: 200.0 mg/kg/injection, schedule: Q04DX003 (ip), vehicle: saline with Tween-80); 88 % of control (endpoint: mean survival time, dose: 400.0 mg/kg/injection, schedule: Q04DX003 (ip), vehicle: saline with Tween-80).

Consider `CC(C)(C)ONC(=O)c1ccccc1Sc1ccccc1`, for which the T/C was 101 % of control under setting [2]; 98 % of control under setting [3]; 97 % of control (endpoint: mean survival time, dose: 400.0 mg/kg/injection, schedule: Q01DX009 (ip), vehicle: saline with Tween-80).

Consider `CCOC(=O)/C(O)=C\c1cc(OC)nnc1Cl`, for which the T/C by setting is: (endpoint: mean survival time, dose: 12.5 mg/kg/injection, schedule: Q04DX002 (ip), vehicle: saline with Tween-80) 114 % of control; under setting [4], 101 % of control; under setting [5], 101 % of control.

For the compound `CC(O)C1OC(n2cnc3c(N)ncnc32)CC1N` (stereo not given), the T/C (endpoint: mean survival time, dose: 12.5 mg/kg/injection, schedule: Q01DX005 (ip), vehicle: distilled water + Tween-80) was 101 % of control; the T/C (endpoint: mean survival time, dose: 25.0 mg/kg/injection, schedule: Q01DX005 (ip), vehicle: distilled water + Tween-80) is 103 % of control; the T/C (endpoint: mean survival time, dose: 50.0 mg/kg/injection, schedule: Q01DX005 (ip), vehicle: distilled water + Tween-80) was 100 % of control; the T/C (endpoint: mean survival time, dose: 100.0 mg/kg/injection, schedule: Q01DX005 (ip), vehicle: distilled water + Tween-80) was 100 % of control; the T/C (endpoint: mean survival time, dose: 200.0 mg/kg/injection, schedule: Q01DX005 (ip), vehicle: distilled water + Tween-80) was 100 % of control.

Regarding `CCCCC(O)C(C)C` (stereo not given), the T/C by setting is: under setting [6], 100 % of control; under setting [2], 103 % of control; under setting [3], 106 % of control.

`Nc1nc(=O)n(CCCOc2ccccc2NC(=O)c2cccc(S(=O)(=O)F)c2)cc1-c1ccc(Cl)c(Cl)c1`: the T/C under setting [7] is 91 % of control, the T/C under setting [8] is 95 % of control and the T/C under setting [9] was 98 % of control.

`Clc1ccccc1/C=N/N=C/c1ccccc1Cl`: the T/C under setting [7] is 91 % of control, the T/C under setting [8] was 90 % of control and the T/C under setting [9] was 89 % of control.

Consider `CC/C=C(\C)CC(C)O` (stereo not given), for which the T/C was 93 % of control under setting [4]; 89 % of control under setting [5]; 89 % of control (endpoint: mean survival time, dose: 100.0 mg/kg/injection, schedule: Q04DX002 (ip), vehicle: saline with Tween-80).

In the case of `Cc1ccc(NC(=O)OCCOc2ccccc2Cl)cc1[N+](=O)[O-]`, the T/C by setting is: under setting [1], 98 % of control; (endpoint: mean survival time, dose: 25.0 mg/kg/injection, schedule: Q01DX009 (ip), vehicle: saline with Tween-80) 103 % of control; under setting [6], 88 % of control and 103 % of control.
